Experimental data: ChEMBL document CHEMBL1142948, “Somatostatin receptor-binding peptides suitable for tumor radiotherapy with Re-188 or Re-186. Chemistry and initial biological studies” (J Med Chem, 2007)

Experiments:
Somatostatin receptor [1] = assay: Displacement of [125I-Tyr-11]-SRIF from SSTR of human NCI-H69 cell membranes
Somatostatin receptor [2] = assay: Displacement of [125I]SRIF-14 from SSTR of rat AR42J cell membranes; design: species or system Membrane; conditions: ar-42j

Structure (SMILES)	IC50 (Somatostatin receptor [1]) [nM]	IC50 (Somatostatin receptor [2]) [nM]
C[C@@H](O)[C@H](NC(=O)[C@H](CS)NC(=O)[C@H](Cc1ccc(N)cc1)NC(=O)[C@@H](N)CNC(=O)CSCC[C@H]1C(=O)N[C@@H](Cc2ccc(O)cc2)C(=O)N[C@H](Cc2c[nH]c3ccccc23)C(=O)N[C@@H](CCCCN)C(=O)N[C@@H]([C@@H](C)O)C(=O)N[C@@H](Cc2ccccc2)C(=O)N1C)C(=O)O	0.64	
CC(C)[C@@H]1NC(=O)[C@H](CCCCN)NC(=O)[C@H](Cc2c[nH]c3ccccc23)NC(=O)[C@H](Cc2ccc(O)cc2)NC(=O)[C@@H](Cc2ccccc2)N(C)C(=O)[C@H](CCS)NC1=O		1.5
C[C@@H](O)[C@@H]1NC(=O)[C@H](CCCCN)NC(=O)[C@H](Cc2c[nH]c3ccccc23)NC(=O)[C@H](Cc2ccc(O)cc2)NC(=O)[C@@H](Cc2ccccc2)N(C)C(=O)[C@H](CCS)NC1=O		0.4
CC(C)[C@@H]1NC(=O)[C@H](CCCCN)NC(=O)[C@H](Cc2c[nH]c3ccccc23)NC(=O)[C@H](Cc2ccc(O)cc2)NC(=O)[C@@H](CCS)N(C)C(=O)[C@H](Cc2ccccc2)NC1=O		0.7
C[C@@H](O)[C@@H]1NC(=O)[C@H](CCCCN)NC(=O)[C@H](Cc2c[nH]c3ccccc23)NC(=O)[C@H](Cc2ccc(O)cc2)NC(=O)[C@@H](CCS)N(C)C(=O)[C@H](Cc2ccccc2)NC1=O		0.1
C[C@@H](O)[C@H](NC(=O)CSCC[C@H]1C(=O)N[C@@H](Cc2ccc(O)cc2)C(=O)N[C@H](Cc2c[nH]c3ccccc23)C(=O)N[C@@H](CCCCN)C(=O)N[C@@H]([C@@H](C)O)C(=O)N[C@@H](Cc2ccccc2)C(=O)N1C)C(=O)NCC(=O)NCC(=O)N[C@@H](CS)C(N)=O	1.6	
C[C@@H](O)[C@@H]1NC(=O)[C@H](CCCCN)NC(=O)[C@@H](Cc2c[nH]c3ccccc23)NC(=O)[C@H](Cc2ccc(O)cc2)NC(=O)[C@H](CCSCC(=O)NC[C@H](N)C(=O)N[C@@H](CO)C(=O)N[C@@H](CS)C(=O)N[C@H](CO)[C@@H](C)O)N(C)C(=O)[C@H](Cc2ccccc2)NC1=O	1.6	

Second part, the molecule after the results:

IC50 (Somatostatin receptor [1]) [nM]	IC50 (Somatostatin receptor [2]) [nM]	Structure (SMILES)
	23.7	C[C@@H](O)[C@@H]1NC(=O)[C@H](CCCCN)NC(=O)[C@H](Cc2c[nH]c3ccccc23)NC(=O)[C@H](Cc2ccc(O)cc2)NC(=O)[C@@H](CCS)NC(=O)[C@H](Cc2ccccc2)N(C)C1=O
0.5		C[C@@H](O)[C@@H]1NC(=O)[C@H](CCCCN)NC(=O)[C@@H](Cc2c[nH]c3ccccc23)NC(=O)[C@H](Cc2ccc(O)cc2)NC(=O)[C@H](CCSCC(=O)NC[C@H](N)C(=O)N[C@@H](Cc2ccc(N)cc2)C(=O)N[C@@H](CS)C(=O)N[C@H](CO)[C@@H](C)O)N(C)C(=O)[C@H](Cc2ccccc2)NC1=O
0.2		C[C@@H](O)[C@H](NC(=O)[C@H](CS)NC(=O)[C@H](Cc1ccc(N)cc1)NC(=O)[C@@H](N)CNC(=O)CSCC[C@H]1C(=O)N[C@@H](Cc2ccc(O)cc2)C(=O)N[C@H](Cc2c[nH]c3ccccc23)C(=O)N[C@@H](CCCCN)C(=O)N[C@@H]([C@@H](C)O)C(=O)N[C@@H](Cc2ccccc2)C(=O)N1C)C(=O)N[C@@H](CO)C(=O)O
0.35		C[C@@H](O)[C@@H]1NC(=O)[C@H](CCCCN)NC(=O)[C@@H](Cc2c[nH]c3ccccc23)NC(=O)[C@H](Cc2ccc(O)cc2)NC(=O)[C@H](CCSCC(=O)NC[C@H](N)C(=O)N[C@@H](CCCCN)C(=O)N[C@@H](CS)C(=O)N[C@H](CO)[C@@H](C)O)N(C)C(=O)[C@H](Cc2ccccc2)NC1=O
